According to patent publication US20250171457A1, “NITROGEN-CONTAINING HETEROCYCLIC COMPOUND HAVING NRF2 ACTIVATION EFFECT” (CHUGAI SEIYAKU KABUSHIKI KAISHA, priority 2022, published 2025):

System: Nrf2 transcriptional activity (pARE-Luc reporter) in HepG2 cells
Assay: In vitro Nrf2 transcriptional activity measurement by ARE-dependent reporter assay in HepG2 cell
Format: cell-based, human
Settings: Homo sapiens; HepG2 cells transfected with pARE-Luc, 4 hours at 37° C.; luciferase activity of Example 1-54 or Example 17-23 at 3.75 μM defined as 100%
Procedure: Test Example 1: In Vitro Nrf2 Transcriptional Activity Measurement by ARE-Dependent Reporter Assay in HepG2 Cell
A human liver cancer-derived cell line HepG2 was transfected with pGL4.37 vector (pARE-Luc, Promega Corp.) and incubated overnight at 37° C. in a humidified atmosphere containing 5% CO2. The cells were dissociated by trypsin treatment, inoculated to a 384-well plate supplemented with a test compound, and incubated at 37° C. for 4 hours. Then, Bright-Glo Reagent (Promega Corp.) was added to the plate, and luciferase activity was measured with Envision plate reader.
Luciferase activity obtained through the action of the compound of Example 1-54 or Example 17-23 at a concentration of 3.75 μM was defined as 100%. The luciferase activity of each well was converted to a response rate (%). The dose-response curve of the compound of each Example was prepared to calculate a 50% effective concentration (EC50).

SMILES | EC50 [nM]
CO[C@H]1C[C@@]2(CN(c3cc(Cl)c(C(=O)N4COc5c(cccc5-c5cc(N6C7CCC6COC7)c(C(=O)O)cc5F)C4)c(Cl)c3)[C@H]2C)C1 [Compound 1-25, 4-[3-[2,6-Dichloro-4-[(1S,4r,6S)-6-methoxy-1-methyl-2-azaspiro[3.3]heptan-2-yl]benzoyl]-2,4-dihydro-1,3-benzoxazin-8-yl]-5-fluoro-2-(3-oxa-8-azabicyclo[3.2.1]octan-8-yl)benzoic acid] | 1.5
CN1CCN(c2cc(Cl)c(C(=O)N3COc4c(cccc4-c4cc(N5CCOCC5)c(C(=O)O)cc4F)C3)c(Cl)c2)CC12CC2 [Compound 4-31, 4-[3-[2,6-Dichloro-4-(4-methyl-4,7-diazaspiro[2.5]octan-7-yl)benzoyl]-2,4-dihydro-1,3-benzoxazin-8-yl]-5-fluoro-2-morpholin-4-ylbenzoic acid] | 1.2
O=C(O)c1cc(F)c(-c2cccc3c2OCN(C(=O)c2c(Cl)cc(N4CC5(C4)CN(C4CC4)C5)cc2Cl)C3)cc1N1C2CCC1COC2 [Compound 9-4, 4-[3-[2,6-Dichloro-4-(2-cyclopropyl-2,6-diazaspiro[3.3]heptan-6-yl)benzoyl]-2,4-dihydro-1,3-benzoxazin-8-yl]-5-fluoro-2-(3-oxa-8-azabicyclo[3.2.1]octan-8-yl)benzoic acid] | 7.5
O=C(O)c1cc(F)c(-c2cccc3c2OCN(C(=O)c2c(Cl)cc(N4CC5COCC5C4)cc2Cl)C3)cc1N1CCOCC1 (stereo not drawn) [Compound 4-24, 4-[3-[4-(1,3,3a,4,6,6a-Hexahydrofuro[3,4-c]pyrrol-5-yl)-2,6-dichlorobenzoyl]-2,4-dihydro-1,3-benzoxazin-8-yl]-5-fluoro-2-morpholin-4-ylbenzoic acid] | 2.7
COc1cc(Cl)c(C(=O)N2COc3c(cccc3-c3cc(N4CCOCC4)c(C(=O)O)cc3F)C2)cc1F [Compound 13-7, 4-[3-(2-Chloro-5-fluoro-4-methoxybenzoyl)-2,4-dihydro-1,3-benzoxazin-8-yl]-5-fluoro-2-morpholin-4-ylbenzoic acid] | 6.7
O=C(O)c1cc(F)c(-c2cccc3c2OCN(C(=O)c2c(Cl)cc(N4CC5(C4)CC5(F)F)cc2Cl)C3)cc1N1C2CCC1COC2 [Compound 1-7, 4-[3-[2,6-Dichloro-4-(2,2-difluoro-5-azaspiro[2.3]hexan-5-yl)benzoyl]-2,4-dihydro-1,3-benzoxazin-8-yl]-5-fluoro-2-(3-oxa-8-azabicyclo[3.2.1]octan-8-yl)benzoic acid] | 2
C[C@H]1CN(c2cc(Cl)c(C(=O)N3COc4c(cccc4-c4cc(N5C6CCC5COC6)c(C(=O)O)cc4F)C3)c(Cl)c2)[C@@H](C)CN1C [Compound 9-13, 4-[3-[2,6-Dichloro-4-[(2S,5S)-2,4,5-trimethylpiperazin-1-yl]benzoyl]-2,4-dihydro-1,3-benzoxazin-8-yl]-5-fluoro-2-(3-oxa-8-azabicyclo[3.2.1]octan-8-yl)benzoic acid] | 6.7
CO[C@H]1COC2(C1)CN(c1cc(Cl)c(C(=O)N3COc4c(cccc4-c4cc(N5C6CCC5COC6)c(C(=O)O)cc4F)C3)c(Cl)c1)C2 [Compound 1-23, 4-[3-[2,6-Dichloro-4-[(7R)-7-methoxy-5-oxa-2-azaspiro[3.4]octan-2-yl]benzoyl]-2,4-dihydro-1,3-benzoxazin-8-yl]-5-fluoro-2-(3-oxa-8-azabicyclo[3.2.1]octan-8-yl)benzoic acid] | 1.9
COCCN1C2CC1CN(c1cc(Cl)c(C(=O)N3COc4c(cccc4-c4cc(N5C6CCC5COC6)c(C(=O)O)cc4F)C3)c(Cl)c1)C2 [Compound 7-14, 4-[3-[2,6-Dichloro-4-[6-(2-methoxyethyl)-3,6-diazabicyclo[3.1.1]heptan-3-yl]benzoyl]-2,4-dihydro-1,3-benzoxazin-8-yl]-5-fluoro-2-(3-oxa-8-azabicyclo[3.2.1]octan-8-yl)benzoic acid] | 24
COc1cc(C(=O)N2COc3c(cccc3-c3cc(N4CCOCC4)c(C(=O)O)cc3F)C2)c(Cl)cc1N1CCN(C)CC1 [Compound 1-72, 4-[3-[2-Chloro-5-methoxy-4-(4-methylpiperazin-1-yl)benzoyl]-2,4-dihydro-1,3-benzoxazin-8-yl]-5-fluoro-2-morpholin-4-ylbenzoic acid] | 5.8
O=C(O)c1cc(F)c(-c2cccc3c2OCN(C(=O)c2c(Cl)cc(N4C5CCCC4COC5)cc2Cl)C3)cc1N1C2CCC1COC2 [Compound 1-43, 4-[3-[2,6-Dichloro-4-(3-oxa-9-azabicyclo[3.3.1]nonan-9-yl)benzoyl]-2,4-dihydro-1,3-benzoxazin-8-yl]-5-fluoro-2-(3-oxa-8-azabicyclo[3.2.1]octan-8-yl)benzoic acid] | 1.8
COC1CN(c2cc(Cl)c(C(=O)N3COc4c(cccc4-c4cc(N5C6CCC5COC6)c(C(=O)O)cc4F)C3)c(Cl)c2)C1 [Compound 4-1, 4-[3-[2,6-Dichloro-4-(3-methoxyazetidin-1-yl)benzoyl]-2,4-dihydro-1,3-benzoxazin-8-yl]-5-fluoro-2-(3-oxa-8-azabicyclo[3.2.1]octan-8-yl)benzoic acid] | 3.1
O=C(O)c1cc(F)c(-c2cccc3c2OCN(C(=O)c2c(Cl)cc(N4CC(O)C4)cc2Cl)C3)cc1N1C2CCC1COC2 [Compound 1-17, 4-[3-[2,6-Dichloro-4-(3-hydroxyazetidin-1-yl)benzoyl]-2,4-dihydro-1,3-benzoxazin-8-yl]-5-fluoro-2-(3-oxa-8-azabicyclo[3.2.1]octan-8-yl)benzoic acid] | 19
O=C(O)c1ccc(-c2cccc3c2OCN(C(=O)c2c(Cl)cc(N4CC[C@@H](O)C4)cc2Cl)C3)cc1N1CCOCC1 [Compound 4-20, 4-[3-[2,6-Dichloro-4-[(3R)-3-hydroxypyrrolidin-1-yl]benzoyl]-2,4-dihydro-1,3-benzoxazin-8-yl]-2-morpholin-4-ylbenzoic acid] | 3
O=C(O)c1cc(F)c(-c2cccc3c2OCN(C(=O)c2c(Cl)cc(OCCCN4CCOCC4)cc2Cl)C3)cc1N1CCOCC1 [Compound 4-49, 4-[3-[2,6-Dichloro-4-(3-morpholin-4-ylpropoxy)benzoyl]-2,4-dihydro-1,3-benzoxazin-8-yl]-5-fluoro-2-morpholin-4-ylbenzoic acid] | 1.2
COC1CN(C2(C)CN(c3cc(Cl)c(C(=O)N4COc5c(cccc5-c5cc(N6C7CCC6COC7)c(C(=O)O)cc5F)C4)c(Cl)c3)C2)C1 [Compound 11-5, 4-[3-[2,6-Dichloro-4-[3-(3-methoxyazetidin-1-yl)-3-methylazetidin-1-yl]benzoyl]-2,4-dihydro-1,3-benzoxazin-8-yl]-5-fluoro-2-(3-oxa-8-azabicyclo[3.2.1]octan-8-yl)benzoic acid] | 2
Cn1nnc2c(N3CC4(C3)OCC(C)(C)CO4)cc(Cl)c(C(=O)N3COc4c(cccc4-c4cc(N5C6CCC5COC6)c(C(=O)O)cc4F)C3)c21 [Compound 19-12, 4-[3-[5-Chloro-7-(7,7-dimethyl-5,9-dioxa-2-azaspiro[3.5]nonan-2-yl)-3-methylbenzotriazole-4-carbonyl]-2,4-dihydro-1,3-benzoxazin-8-yl]-5-fluoro-2-(3-oxa-8-azabicyclo[3.2.1]octan-8-yl)benzoic acid] | 2.5
Cn1ccc2cc(Cl)c(C(=O)N3COc4c(cccc4-c4cc(N5CCOCC5)c(C(=O)O)cc4F)C3)cc21 [Compound 13-12, 4-[3-(5-Chloro-1-methylindole-6-carbonyl)-2,4-dihydro-1,3-benzoxazin-8-yl]-5-fluoro-2-morpholin-4-ylbenzoic acid] | 17
